Data on two compounds can be found in US20250297310A1, “HEMATOPOIETIC LOSS OF Y CHROMOSOME LEADS TO CARDIAC FIBROSIS AND DYSFUNCTION AND IS ASSOCIATED WITH DEATH DUE TO HEART FAILURE” (University of Virginia Patent Foundation, priority 2022, published 2025).

Series [1] is described as follows: Effect of senolytic ABT-263 on lifespan and kidney function in aging hematopoietic Uty-KO mice. Type of series: in vivo. The text has this: FIGS. 28A-28C. The effect of the senolytic ABT-263 on lifespan and kidney function in aging hematopoietic Uty-KO mice. FIG. 28A. Exemplary model of ABT-263 mice. FIGS. 28B and 28C.
FIGS. 28A-28C show the effect of the senolytic ABT-263 on lifespan and kidney function in aging hematopoietic Uty-KO mice, using an exemplary model of ABT-263 mice.

Series [2] concerns centromere of the Y chromosome. In words: Y chromosome ablation efficiency by FISH analysis of tRFP-positive blood cells. Conditions: tRFP-positive blood cells from reconstituted mice. Type of series: cell-based. From the text: Plasmids. Single guide RNAs (sgRNA) targeting the centromere of the Y chromosome (gRNA1, gRNA2) were from a previous report (Adikusuma et al., 2017), and the control gRNA is non-targeting. sgRNA sequences are listed in Table 4. Single stranded sgRNA sequences were annealed and cloned into pLKO.sgRNA.EFS.tRFP following restriction digestion with Esp3I, and successful cloning was confirmed by Sanger sequencing with U6 primer (Table 4). Plasmids were from Addgene (pLKO5.0.sgRNA.EFS.tRFP, plasmid #57823; psPAX2; plasmid #12260; and pMD2.G, plasmid #12259).
Ex vivo genome editing of HSPC. sgRNAs were delivered lentivirally to bone marrow lineage-negative cells obtained from ROSA26Cas9 knock-in mice as described previously (Sano et al., 2019).
Fluorescence in situ hybridization (FISH). […] 200 interphase nuclei were analyzed by two technologists using an Olympus fluorescence microscope (model BX-41).
We constructed a mouse model of hematopoietic mLOY by employing CRISPR/Cas9 gene editing to target repeat DNA sequences that are specific to the centromere of the Y chromosome. […] Two LOY-gRNAs (LOY-gRNA1 and 2) targeting different repeat sequences within the centromere were evaluated for the efficiency of Y chromosome ablation by fluorescent in situ hybridization (FISH) analysis of X and Y chromosome in tRFP-positive blood cells collected from mice reconstituted with bone marrow cells. […]

Regarding `CC1(C)CCC(c2ccc(Cl)cc2)=C(CN2CCN(c3ccc(C(=O)NS(=O)(=O)c4ccc(N[C@H](CCN5CCOCC5)CSc5ccccc5)c(S(=O)(=O)C(F)(F)F)c4)cc3)CC2)C1` [ABT-263], in series [1], the “progression of renal dysfunction” value is “suppressed the progression of renal dysfunction” and the survival result was “promoted survival”.

In the case of “LOY-gRNA1: guide RNA targeting a repeat sequence in the centromere of the Y chromosome, SEQ ID NOs: 1-2 (guide 1 CACCGGAGUUAAUAUAAAAAACA; guide 2 AAACUGUUUUUUAUAUUAACUCC; listed as RNA, chemistry not fully specified)”, the “Y chromosome ablation efficiency” value in series [2] is “approximately 95%”.
